From PubChem BioAssay (NCI)
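Where inhibition never reached the appropriate level, the endpoint shown equals the highest concentration tested. Otherwise, values were interpolated linearly from a five-concentration, 48-hour dose response in 96-well plates. Here, GI50 denotes the concentration required for 50% inhibition of growth. The concentration for full growth arrest is given as TGI.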

Tests used:
Test in all cases: inhibition of tumour cell growth, NCI panel, 48 h
[1] = test system: DU-145 prostate
[2] = test system: SK-MEL-2 melanoma
[3] = test system: PC-3 prostate
[4] = test system: SR leukemia
[5] = test system: EKVX NSCLC
[6] = test system: OVCAR-5 ovarian
[7] = test system: NCI-H23 lung
[8] = test system: MDA-N
[9] = test system: MDA-MB-435
[10] = test system: SN12C renal

Structure (SMILES)	TGI [1] [µM]	TGI [2] [µM]	TGI [3] [µM]	TGI [4] [µM]	TGI [5] [µM]	TGI [6] [µM]	TGI [7] [µM]	TGI [8] [µM]	TGI [9] [µM]	TGI [10] [µM]	GI50 [1] [µM]	GI50 [2] [µM]	GI50 [3] [µM]	GI50 [10] [µM]	GI50 [5] [µM]	GI50 [6] [µM]	GI50 [7] [µM]	GI50 [9] [µM]
Cc1cccc2c1CC1(Cc3c(C)cccc3C1=O)C2=O	> 100	> 100	> 100	> 100	> 100	> 100	> 100	> 100	> 100	–	–	–	–	–	–	–	–	–
CCCCCC(=O)OC[n+]1ccc(-c2c(COC(=O)NC(C)C)c(COC(=O)NC(C)C)c3n2CCC3)cc1	> 100	> 100	> 100	> 80.9	> 100	> 100	> 100	> 100	> 100	> 100	–	–	–	–	–	–	–	–
O=C(Nc1ccccn1)c1cc2c(cc1Cl)Sc1nccn1S2(=O)=O	–	48.8	> 100	> 100	94.5	> 100	82.6	> 100	> 100	> 100	–	–	–	–	–	–	–	–
COC(=O)C1=C(C(=O)OC)C2CCC1CC2=O (configuration not stated)	> 100	> 100	> 100	> 100	> 100	> 100	> 100	> 100	> 100	> 100	–	–	–	–	–	–	–	–
Cc1cn(C2CC(/[N+]([O-])=N\Nc3ccc([N+](=O)[O-])cc3)C(CO)O2)c(=O)[nH]c1=O (configuration not stated)	> 100	–	> 100	> 100	> 100	> 100	> 100	> 100	> 100	> 100	–	–	–	–	–	–	–	–
CCOC(=O)C(C(=O)OCC)C(=S)NC1OC(COC(C)=O)C(OC(C)=O)C(OC(C)=O)C1OC(C)=O (configuration not stated)	> 100	> 100	–	> 100	> 100	> 100	> 100	> 100	> 100	> 100	–	–	–	–	–	–	–	–
COc1ccc(-c2c3c(n(C4OC(COC(C)=O)C(OC(C)=O)C(OC(C)=O)C4OC(C)=O)c(=S)c2C#N)CCCC3)cc1 (configuration not stated)	> 100	72.5	66.7	> 100	> 100	> 100	> 100	> 100	> 100	> 100	–	–	–	–	–	–	–	–
CC1(C)C/C=C\CCC(O)C(O)CCC(C)(C)C1=O (configuration not stated)	> 100	> 100	> 100	> 100	> 100	> 100	> 100	> 100	> 100	> 100	–	–	–	–	–	–	–	–
CCCCCCCCC[C@@H]1C[C@H](O)[C@H](Cc2ccccc2)N1C(=O)OC(C)(C)C	–	30.3	–	46.2	33.5	28.5	31.6	–	–	31	–	–	–	–	–	–	–	–
COc1ccc(-c2cc(-c3ccncc3)nc(N)c2-c2ccc(F)cc2)cc1	–	> 100	> 100	38.7	> 100	> 100	> 100	–	> 100	–	–	–	–	–	–	–	–	–
O=C1C=C(NCCc2ccc(O)cc2)C(=O)C=C1NCCc1ccc(O)cc1	> 100	> 100	> 100	> 100	> 100	> 100	> 100	–	> 100	> 100	–	–	–	–	–	–	–	–
NCCCCNCCCNC(=O)c1csc(-c2nc(CCN)sc2Cl)n1	> 100	–	> 100	–	> 100	> 100	> 100	> 100	> 100	> 100	–	–	–	–	–	–	–	–
O=[N+]([O-])c1ccc(N/N=C\c2ccc(O)cc2O)nc1	> 100	> 100	> 100	–	> 100	> 100	> 100	–	> 100	> 100	1.77	5.21	5.73	3.12	3.49	5.68	3.39	3.14
COc1ccc(C(CC(=O)c2ccc(O)cc2)C(C(=O)c2ccc(O)cc2)C(c2ccc(OC)cc2)C2C(=O)NC(=S)NC2=O)cc1 (configuration not stated)	33.8	70.8	59.8	> 100	–	49.6	–	41.5	61.2	57	–	–	–	–	–	–	–	–
c1ccc2c(CCNC3=NCCO3)cccc2c1	> 10	> 10	> 10	> 10	> 10	> 10	> 10	> 10	> 10	–	–	–	–	–	–	–	–	–
CSc1c(C#N)c(=O)n(N)c2n[nH]c(C)c12	> 100	> 100	> 100	> 100	> 100	–	> 100	> 100	> 100	> 100	–	–	–	–	–	–	–	–
COc1ccccc1N1C(=O)/C(=C\c2ccccc2)SC1c1cc(OC)c(OC)c(OC)c1 (configuration not stated)	–	33	68.9	> 100	> 100	> 100	> 100	48.6	46.5	87.9	–	–	–	–	–	–	–	–
COC(=O)CCC(=O)c1ccc2c(c1)CC1(Cc3ccccc3C1)C2	–	> 100	> 100	34	> 100	> 100	> 100	> 100	> 100	> 100	–	–	–	–	–	–	–	–
O=C1N(c2ccccc2)N=C2c3ccncc3C3=NN(c4ccccc4)C(=O)C123 (configuration not stated)	> 100	> 100	> 100	> 100	> 100	> 100	> 100	–	> 100	> 100	–	–	–	–	–	–	–	–
Cc1cc(NS(=O)(=O)c2ccc(N=Nc3c(Nc4ccccc4)nn(-c4ccc(S(=O)(=O)Nc5ccncn5)cc4)c3C)cc2)no1	> 100	> 100	> 100	–	> 100	> 100	> 100	> 100	> 100	> 100	–	–	–	–	–	–	–	–
CN(C)CCNc1nc2c(c(=O)n(C)c(=O)n2C)n1C	> 100	–	–	> 100	> 100	> 100	> 100	> 100	> 100	> 100	–	–	–	–	–	–	–	–
